What was measured:
[1] = target: T1, P450 2C9 (Homo sapiens, UniProt P11712); assay: Metabolic stability by substrate depletion; conditions: 1 μM substrate, 0.04 μM P450 2C9, NADPH 2 mM, 37°C
[2] = target: T1, P450 2C9; assay: P450 2C9 inactivation assay; conditions: Hill equation
[3] = target: P450 2C9 Baculosomes (Homo sapiens, UniProt P11712); assay: Partition ratio by titration method; conditions: 30 min pre-incubation, (S)-flurbiprofen as probe substrate
[4] = tested on: P450 2C9; conditions: in humans; ref Obach et al., 2007; cited from earlier work
[5] = target: T1, P450 2C9; assay: in vitro; conditions: recombinant enzyme, pH 7.4, in vitro half-life (t1/2)
[6] = ref Kumar et al., 2002; Mano et al., 2007; cited from earlier work

T1 sequence (P11712 whole entry): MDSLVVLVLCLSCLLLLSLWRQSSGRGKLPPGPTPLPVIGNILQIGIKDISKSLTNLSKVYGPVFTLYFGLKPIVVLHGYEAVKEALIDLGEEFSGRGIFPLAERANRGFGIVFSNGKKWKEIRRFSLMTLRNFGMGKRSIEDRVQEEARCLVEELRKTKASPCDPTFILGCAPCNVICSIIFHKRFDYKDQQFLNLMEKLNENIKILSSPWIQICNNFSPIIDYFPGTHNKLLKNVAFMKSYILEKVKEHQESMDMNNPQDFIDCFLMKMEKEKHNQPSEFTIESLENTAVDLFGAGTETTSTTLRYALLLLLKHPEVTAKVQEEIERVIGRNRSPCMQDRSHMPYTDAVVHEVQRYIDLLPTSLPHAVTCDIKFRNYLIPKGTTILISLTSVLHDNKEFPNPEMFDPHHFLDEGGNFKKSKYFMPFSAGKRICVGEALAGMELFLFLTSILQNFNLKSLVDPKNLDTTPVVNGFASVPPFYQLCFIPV
Sequence of P450 2C9 Baculosomes (P11712 whole entry): as above

CC(C(=O)O)c1ccc(C(=O)c2cccs2)cc1 (racemic) [(±)-Suprofen, (±)-suprofen]
in vitro half-life (t1/2) [1]: 50 min | n (Hill coefficient) ([2]; probe substrate (S)-flurbiprofen): 1.4 | n (Hill coefficient) ([2]; probe substrate diclofenac): 1.3 | partition ratio [3]: 98 | turnover number (partition ratio + 1) [3]: 99

CC(=O)C[C@@H](c1ccccc1)c1c(O)c2ccccc2oc1=O [(S)-warfarin]
fraction metabolized through P450 2C9 (fm2C9) [4]: 0.91

O=C(O)COc1ccc(C(=O)c2cccs2)c(Cl)c1Cl [Tienilic Acid, Tienilic acid]
half-life at 1 μM [5]: 5 min

C[C@H](C(=O)O)c1ccc(-c2ccccc2)c(F)c1 [(S)-flurbiprofen]
cleared by direct glucuronidation of the carboxylate functional groups [6]: roughly 50%

O=C(O)Cc1ccccc1Nc1c(Cl)cccc1Cl [diclofenac]
cleared by direct glucuronidation of the carboxylate functional groups [6]: roughly 50%

C[C@H](C(=O)O)c1ccc(C(=O)c2cccs2)cc1 [(S)-suprofen]
half-life at 1 μM [5]: 35 to 38 min

C[C@@H](C(=O)O)c1ccc(C(=O)c2cccs2)cc1 [(R)-suprofen]
half-life at 1 μM [5]: 35 to 38 min
